Values after ≈ are worked out from the molar mass of the structure shown. Read-outs that look alike come from different tables or passages of the source.
Experiments:
Test in all cases: MIC, agar incorporation method
[1] = system: E. durans 581; format: cell-based; conditions: Enterococcus durans; S. No. 24, E. durans 581; read-out: MIC
[2] = system: E. faecium 6A (VRE); format: cell-based, Enterococcus faecium; conditions: Enterococcus faecium; S. No. 21, E. faecium 6A (VRE); read-out: MIC
[3] = system: S. pneumoniae AB 23; format: cell-based, Streptococcus pneumoniae; conditions: Streptococcus pneumoniae, AB23
[4] = system: E. coli 25922; format: cell-based; conditions: Escherichia coli; S. No. 25, E. coli 25922; read-out: MIC
[5] = system: S. aureus (MRSA) 21299; format: cell-based, Staphylococcus aureus; conditions: Staphylococcus aureus; S. No. 5, S. aureus (MRSA) 21299; read-out: MIC
[6] = system: S. pneumoniae 1275; format: cell-based, Streptococcus pneumoniae; conditions: Streptococcus pneumoniae; S. No. 57, S. pneumoniae 1275; read-out: MIC
[7] = system: S. aureus ATCC 25923; format: cell-based, Staphylococcus aureus; conditions: Staphylococcus aureus, ATCC25923; S. No. 1, organism cell empty; read-out: MIC
[8] = system: S. pneumoniae AB 30; format: cell-based, Streptococcus pneumoniae; conditions: Streptococcus pneumoniae, AB30
[9] = system: S. epidermidis 358; format: cell-based, Staphylococcus epidermidis; conditions: Staphylococcus epidermidis; S. No. 14, S. epidermidis 358; read-out: MIC
[10] = system: S. haemo ATCC 29970; format: cell-based
[11] = system: S. pneumoniae AB 16; format: cell-based, Streptococcus pneumoniae; conditions: Streptococcus pneumoniae, AB16
[12] = system: S. pneumoniae AB 14; format: cell-based, Streptococcus pneumoniae; conditions: Streptococcus pneumoniae, AB14
[13] = system: P. aeruginosa ATCC 27853; format: cell-based; conditions: Pseudomonas aeruginosa, ATCC27853; S. No. 28, P. aeruginosa ATCC 27853; read-out: MIC
[14] = system: S. pneumoniae 1256; format: cell-based, Streptococcus pneumoniae; conditions: Streptococcus pneumoniae; S. No. 56, S. pneumoniae 1256; read-out: MIC
[15] = system: E. faecium 398(VRE); format: cell-based, Enterococcus faecium; conditions: Enterococcus faecium; S. No. 22, E. faecium 398(VRE); read-out: MIC
[16] = system: (MRSA) 562; format: cell-based, Staphylococcus aureus; conditions: Staphylococcus aureus; S. No. 8, (MRSA) 562; read-out: MIC
[17] = system: S. pneumoniae AB-3; format: cell-based, Streptococcus pneumoniae; conditions: Streptococcus pneumoniae, AB3; S. No. 32, S. pneumoniae AB-3; read-out: MIC
[18] = system: S. pneumoniae AB 22; format: cell-based, Streptococcus pneumoniae; conditions: Streptococcus pneumoniae, AB22
[19] = system: S pneumoniae 1294.; format: cell-based, Streptococcus pneumoniae; conditions: Streptococcus pneumoniae
[20] = system: E. faecalis SP 346 (VRE); format: cell-based; conditions: Enterococcus faecalis; S. No. 20, E. faecalis SP 346 (VRE); read-out: MIC
[21] = system: S. epidermidis 823; format: cell-based, Staphylococcus epidermidis; conditions: Staphylococcus epidermidis
[22] = system: S. pyogenes 20361; format: cell-based, Streptococcus pyogenes; conditions: Streptococcus pyogenes; S. No. 53, S. pyogenes 20361; read-out: MIC
[23] = system: S. pneumoniae 1251; format: cell-based, Streptococcus pneumoniae; conditions: Streptococcus pneumoniae
[24] = system: S. pneumoniae CS1221; format: cell-based, Streptococcus pneumoniae; conditions: Streptococcus pneumoniae; S. No. 34, S. pneumoniae CS1221; read-out: MIC
[25] = system: Salmonella 205; format: cell-based; conditions: S. No. 26, Salmonella 205; read-out: MIC
Experimental: The compounds of the invention display antibacterial activity when tested by the agar incorporation method. The following minimum inhibitory concentrations (μg/ml) were obtained for representative compounds of the invention which are given below in the following tables.
Briefly, the compounds were dissolved in DMSO and doubling dilution of the compounds were incorporated into Meer Hilton agar before solidification. Inoculum was prepared by suspending 4 to 5 colonies into 5 ml of normal saline solution and adjusting the turbidity to 0.5 Macfarland turbidity standard tables (1.5×10^8 CFU/ml), after appropriate dilutions, 10^4 CFU/spot was transfered into the surface of dried plate and incubated for 18 hours (24 hours for MRSN studies). The concentration showing no growth of the inoculated culture was recorded as the MIC. Appropriate ATCC standard strains were simultaneously tested and result recorded only when the MIC's against standard antibiotics were within the acceptable range.

[26] = system: S. pneumoniae 217; format: cell-based, Streptococcus pneumoniae; conditions: Streptococcus pneumoniae
[27] = system: S. aureus (MRSA 33) Cipro R; format: cell-based, Staphylococcus aureus; conditions: Staphylococcus aureus; S. No. 7, S. aureus (MRSA 33) Cipro R; read-out: MIC
[28] = system: S. pneumoniae AB4; format: cell-based, Streptococcus pneumoniae; conditions: Streptococcus pneumoniae; S. No. 33, S. pneumoniae AB4; read-out: MIC
[29] = system: S. pneumoniae ATCC 49619; format: cell-based, Streptococcus pneumoniae; conditions: Streptococcus pneumoniae, ATCC49619; S. No. 48, S. pneumoniae ATCC 49619; read-out: MIC
[30] = system: S. pneumoniae AB 34; format: cell-based, Streptococcus pneumoniae; conditions: Streptococcus pneumoniae, AB34; S. No. 49, S. pneumoniae AB 34; read-out: MIC
[31] = system: K. oxytoca 49131; format: cell-based; conditions: Klebsiella oxytoca; S. No. 27, K. oxytoca 49131; read-out: MIC
[32] = system: Acinetobacter 9956; format: cell-based; conditions: S. No. 30, Acinetobacter 9956; read-out: MIC
[33] = S. No. 43, S. pneumoniae AB 23, read-out: MIC
[34] = S. No. 47, S. pneumoniae AB 30, read-out: MIC
[35] = S. No. 15, S. haemo ATCC 29970, read-out: MIC
[36] = S. No. 39, S. pneumoniae AB 16, read-out: MIC
[37] = S. No. 37, S. pneumoniae AB 14, read-out: MIC
[38] = S. No. 42, S. pneumoniae AB 22, read-out: MIC
[39] = S. No. 55, S pneumoniae 1294., read-out: MIC
[40] = S. No. 12, S. epidermidis 823, read-out: MIC
[41] = S. No. 54, S. pneumoniae 1251, read-out: MIC
[42] = S. No. 38, S. pneumoniae 217, read-out: MIC

Row | SMILES | MIC [1] [µg/mL] | MIC [2] [µg/mL] | MIC [4] [µg/mL] | MIC [5] [µg/mL] | MIC [6] [µg/mL] | MIC [7] [µg/mL] | MIC [9] [µg/mL] | MIC [13] [µg/mL] | MIC [14] [µg/mL] | MIC [15] [µg/mL] | MIC [16] [µg/mL] | MIC [17] [µg/mL] | MIC [20] [µg/mL] | MIC [22] [µg/mL] | MIC [24] [µg/mL] | MIC [25] [µg/mL] | MIC [27] [µg/mL] | MIC [28] [µg/mL] | MIC [29] [µg/mL] | MIC [30] [µg/mL] | other results
1 | CC(=O)NC[C@H]1CN(c2ccc(N3CCN(c4ccc([N+](=O)[O-])s4)CC3)c(F)c2)C(=O)O1 [Compound No. 1, (S)—N-[[3-[3-Fluoro-4-[4-(5-nitro-2-thienyl)-1-piperazinyl]phenyl]-2-oxo-5-oxazolidinyl]methyl]acetamide] | 0.25 (≈ 0.539 µM) | 0.25 (≈ 0.539 µM) | > 16 | 0.25 (≈ 0.539 µM) | 0.06 (≈ 0.129 µM) | 0.25 (≈ 0.539 µM) | 0.25 (≈ 0.539 µM) | > 16 | 0.25 (≈ 0.539 µM) | 0.25 (≈ 0.539 µM) | 0.25 (≈ 0.539 µM) | 0.06 (≈ 0.129 µM) | 0.25 (≈ 0.539 µM) | 0.06 (≈ 0.129 µM) | 0.06 (≈ 0.129 µM) | > 16 | 0.25 (≈ 0.539 µM) | 0.06 (≈ 0.129 µM) | 0.06 (≈ 0.129 µM) | 0.25 (≈ 0.539 µM) | MIC [3]: 0.125 µg/mL (≈ 0.27 µM); MIC [8]: 0.125 µg/mL (≈ 0.27 µM); MIC [10]: 0.125 µg/mL (≈ 0.27 µM); MIC [11]: 0.125 µg/mL (≈ 0.27 µM); MIC [12]: 0.125 µg/mL (≈ 0.27 µM); MIC [18]: 0.125 µg/mL (≈ 0.27 µM); MIC ([19]; 1294.): 0.125 µg/mL (≈ 0.27 µM); MIC [21]; 823: 0.125 µg/mL (≈ 0.27 µM); MIC [23]; 1251: 0.125 µg/mL (≈ 0.27 µM); MIC [26]; 217: 0.125 µg/mL (≈ 0.27 µM); MIC [31]: > 16 µg/mL; MIC [32]: > 16 µg/mL
2 | CC(=O)NC[C@H]1CN(c2ccc(N3CCN(c4ccc(C=O)s4)CC3)c(F)c2)C(=O)O1 [Compound No. 2, (S)—N-[[3-[3-Fluoro-4-[4-(5-formyl-2-thienyl)-1-piperazinyl]phenyl]-2-oxo-5-oxazolidinyl]methyl]acetamide] | 0.5 (≈ 1.12 µM) | 1 (≈ 2.24 µM) | > 16 | 0.5 (≈ 1.12 µM) | < 0.25 | 1 (≈ 2.24 µM) | 0.5 (≈ 1.12 µM) | > 16 | < 0.25 | 0.5 (≈ 1.12 µM) | 0.5 (≈ 1.12 µM) | < 0.25 | 0.5 (≈ 1.12 µM) | 0.5 (≈ 1.12 µM) | 0.5 (≈ 1.12 µM) | > 16 | 0.5 (≈ 1.12 µM) | 0.5 (≈ 1.12 µM) | 0.5 (≈ 1.12 µM) | 0.5 (≈ 1.12 µM) | MIC [3, 33]: 0.5 µg/mL (≈ 1.12 µM); MIC [8, 34]: 0.5 µg/mL (≈ 1.12 µM); MIC [10, 35]: 0.5 µg/mL (≈ 1.12 µM); MIC [11, 36]: < 0.25 µg/mL; MIC [12, 37]: < 0.25 µg/mL; MIC [18, 38]: 0.5 µg/mL (≈ 1.12 µM); MIC [19, 39]: 0.5 µg/mL (≈ 1.12 µM); MIC [21, 40]: 0.5 µg/mL (≈ 1.12 µM); MIC [23, 41]: 0.5 µg/mL (≈ 1.12 µM); MIC [26, 42]: 0.5 µg/mL (≈ 1.12 µM); MIC [31]: > 16 µg/mL; MIC [32]: > 16 µg/mL
3 | CC(=O)NC[C@H]1CN(c2ccc(N3CCN(c4ccc(C=O)o4)CC3)c(F)c2)C(=O)O1 [Compound No. 3, (S)—N-[[3-[3-Fluoro-4-[4-(5-formyl-2-furyl)-1-piperazinyl]phenyl]-2-oxo-5-oxazolidinyl]methyl]acetamide] | 0.5 (≈ 1.16 µM) | 0.5 (≈ 1.16 µM) | > 16 | 0.5 (≈ 1.16 µM) | < 0.125 | 1 (≈ 2.32 µM) | 0.5 (≈ 1.16 µM) | > 16 | 0.5 (≈ 1.16 µM) | 0.5 (≈ 1.16 µM) | 0.5 (≈ 1.16 µM) | 0.25 (≈ 0.581 µM) | 0.5 (≈ 1.16 µM) | 0.25 (≈ 0.581 µM) | 0.25 (≈ 0.581 µM) | > 16 | 0.5 (≈ 1.16 µM) | 0.25 (≈ 0.581 µM) | 0.25 (≈ 0.581 µM) | 0.25 (≈ 0.581 µM) | MIC [3, 33]: 0.25 µg/mL (≈ 0.581 µM); MIC [8, 34]: 0.25 µg/mL (≈ 0.581 µM); MIC [10, 35]: 0.25 µg/mL (≈ 0.581 µM); MIC [11, 36]: 0.25 µg/mL (≈ 0.581 µM); MIC [12, 37]: < 0.125 µg/mL; MIC [18, 38]: 0.25 µg/mL (≈ 0.581 µM); MIC [19, 39]: 0.25 µg/mL (≈ 0.581 µM); MIC [21, 40]: 0.5 µg/mL (≈ 1.16 µM); MIC [23, 41]: 0.25 µg/mL (≈ 0.581 µM); MIC [26, 42]: 0.25 µg/mL (≈ 0.581 µM); MIC [31]: > 16 µg/mL; MIC [32]: > 16 µg/mL
